Tested on: RA patients
Assay: Total cholesterol determination, Study 1 (RA patients with inadequate response to methotrexate, add-on to MTX)
Format: in vivo, human
Experimental: Double-blind, placebo-controlled add on study in subjects with moderately to severely active RA who have an inadequate response to methotrexate (MTX) (oral or parenteral).
595 subjects randomized to one of 6 dose regimens of Compound 1 (dosed as a [Compound 1:HCl:3H2O]) (3 dose levels administered either once or twice daily) or placebo on top of each subject's stable dose of MTX.
Compound 1 (dosed as a [Compound 1:HCl:3H2O]) is dosed for twelve weeks once daily (q.d.) (50 mg, 100 mg or 200 mg) or twice daily (b.i.d.) (25 mg, 50 mg or 100 mg); or placebo.
At Week 12, the subjects on placebo who have not achieved 20% improvement in swollen joint count (SJC66) and tender joint count (TJC68) are re-randomized automatically to receive Compound 1 (dosed as a [Compound 1:HCl:3H2O]) either at 100 mg q.d. or 50 mg b.i.d. doses in a blinded fashion; subjects on 50 mg q.d. who have not achieved 20% improvement in SJC66 and TJC68 will be assigned to 100 mg q.d. and subjects on 25 mg b.i.d. that have not achieved a 20% improvement in SJC66 and TJC68 will be assigned to 50 mg b.i.d. Subjects who switch treatment at week 12 are handled as if they discontinued at week 12 for the purpose of statistical analysis, whereas subjects in the other groups will maintain their randomized treatment until Week 24.
This method is based on the determination of Δ^4 cholestenone after enzymatic cleavage of the cholesterol ester by cholesterol esterase, conversion of cholesterol by cholesterol oxidase, and subsequent measurement by the Trinder reaction of the hydrogen peroxide formed (Allain et al., 1974).
Cholesterol esters are cleaved by the action of cholesterol esterase to yield free cholesterol and fatty acids. Cholesterol oxidase then catalyzes the oxidation of cholesterol to cholest-4-en-3-one and hydrogen peroxide. In the presence of peroxidase, the hydrogen peroxide formed effects the oxidative coupling of phenol and 4-aminophenazone to form a red quinone-imine dye. The color intensity of the dye formed is directly proportional to the cholesterol concentration. It is determined by measuring the increase in absorbance.
Human serum and plasma samples cholesterol determination was done on a Roche/Hitachi Cobas c 701/702 system which automatically calculate the analyte concentration of each sample.

O=C(Nc1nc2cccc(-c3ccc(CN4CCS(=O)(=O)CC4)cc3)n2n1)C1CC1 [Compound 1, cyclopropanecarboxylic acid {5-[4-(1,1-dioxo-thiomorpholin-4-ylmethyl)-phenyl]-[1,2,4]triazolo[1,5-a]pyridin-2yl}-amide]
[total cholesterol] Mean percentage CFB - 24 weeks results (continued 25 mg b.i.d (N = 69), week 12): 6.38% | [total cholesterol] Mean percentage CFB - 24 weeks results (continued 25 mg b.i.d (N = 69), week 16): 5.51% | [total cholesterol] Mean percentage CFB - 24 weeks results (continued 25 mg b.i.d (N = 69), week 20): 6.95% | [total cholesterol] Mean percentage CFB - 24 weeks results (continued 25 mg b.i.d (N = 69), week 24): 6.53% | [total cholesterol] Mean percentage CFB - 24 weeks results (continued 50 mg b.i.d. (N = 85), week 1): 3.39% | [total cholesterol] Mean percentage CFB - 24 weeks results (continued 50 mg b.i.d. (N = 85), week 2): 3.87% | [total cholesterol] Mean percentage CFB - 24 weeks results (continued 50 mg b.i.d. (N = 85), week 4): 7.04% | [total cholesterol] Mean percentage CFB - 24 weeks results (continued 50 mg b.i.d. (N = 85), week 8): 5.63% | [total cholesterol] Mean percentage CFB - 24 weeks results (continued 50 mg b.i.d. (N = 85), week 12): 5.67% | [total cholesterol] Mean percentage CFB - 24 weeks results (continued 50 mg b.i.d. (N = 85), week 16): 6.23% | [total cholesterol] Mean percentage CFB - 24 weeks results (continued 50 mg b.i.d. (N = 85), week 20): 7.91% | [total cholesterol] Mean percentage CFB - 24 weeks results (continued 50 mg b.i.d. (N = 85), week 24): 7.97% | [total cholesterol] Mean percentage CFB - 24 weeks results (continued 50 mg q.d. (N = 63), week 1): 0.77% | [total cholesterol] Mean percentage CFB - 24 weeks results (continued 50 mg q.d. (N = 63), week 2): −0.22% | [total cholesterol] Mean percentage CFB - 24 weeks results (continued 50 mg q.d. (N = 63), week 4): 1.08% | [total cholesterol] Mean percentage CFB - 24 weeks results (continued 50 mg q.d. (N = 63), week 8): 3.49% | [total cholesterol] Mean percentage CFB - 24 weeks results (continued 50 mg q.d. (N = 63), week 12): 5.58% | [total cholesterol] Mean percentage CFB - 24 weeks results (continued 50 mg q.d. (N = 63), week 16): 5.15% | [total cholesterol] Mean percentage CFB - 24 weeks results (continued 50 mg q.d. (N = 63), week 20): 4.68% | [total cholesterol] Mean percentage CFB - 24 weeks results (continued 50 mg q.d. (N = 63), week 24): 6.75% | [total cholesterol] Mean percentage CFB - 24 weeks results (continued 100 mg b.i.d. (N = 84), week 1): 6.85% | [total cholesterol] Mean percentage CFB - 24 weeks results (continued 100 mg b.i.d. (N = 84), week 2): 8.38% | [total cholesterol] Mean percentage CFB - 24 weeks results (continued 100 mg b.i.d. (N = 84), week 4): 9.86% | [total cholesterol] Mean percentage CFB - 24 weeks results (continued 100 mg b.i.d. (N = 84), week 8): 14.79% | [total cholesterol] Mean percentage CFB - 24 weeks results (continued 100 mg b.i.d. (N = 84), week 12): 14.98% | [total cholesterol] Mean percentage CFB - 24 weeks results (continued 100 mg b.i.d. (N = 84), week 16): 12.82% | [total cholesterol] Mean percentage CFB - 24 weeks results (continued 100 mg b.i.d. (N = 84), week 20): 12.71% | [total cholesterol] Mean percentage CFB - 24 weeks results (continued 100 mg b.i.d. (N = 84), week 24): 15.39% | [total cholesterol] Mean percentage CFB - 24 weeks results (continued 100 mg q.d. (N = 85), week 1): 3.65% | [total cholesterol] Mean percentage CFB - 24 weeks results (continued 100 mg q.d. (N = 85), week 2): 2.32% | [total cholesterol] Mean percentage CFB - 24 weeks results (continued 100 mg q.d. (N = 85), week 4): 4.86% | [total cholesterol] Mean percentage CFB - 24 weeks results (continued 100 mg q.d. (N = 85), week 8): 3.79% | [total cholesterol] Mean percentage CFB - 24 weeks results (continued 100 mg q.d. (N = 85), week 12): 5.39% | [total cholesterol] Mean percentage CFB - 24 weeks results (continued 100 mg q.d. (N = 85), week 16): 1.87% | [total cholesterol] Mean percentage CFB - 24 weeks results (continued 100 mg q.d. (N = 85), week 20): 3.28% | [total cholesterol] Mean percentage CFB - 24 weeks results (continued 100 mg q.d. (N = 85), week 24): 5.05% | [total cholesterol] Mean percentage CFB - 24 weeks results (continued 200 mg q.d. (N = 86), week 1): 5.53% | [total cholesterol] Mean percentage CFB - 24 weeks results (continued 200 mg q.d. (N = 86), week 2): 9.86% | [total cholesterol] Mean percentage CFB - 24 weeks results (continued 200 mg q.d. (N = 86), week 4): 8.99% | [total cholesterol] Mean percentage CFB - 24 weeks results (continued 200 mg q.d. (N = 86), week 8): 6.72% | [total cholesterol] Mean percentage CFB - 24 weeks results (continued 200 mg q.d. (N = 86), week 12): 10.16% | [total cholesterol] Mean percentage CFB - 24 weeks results (continued 200 mg q.d. (N = 86), week 16): 9.19% | [total cholesterol] Mean percentage CFB - 24 weeks results (continued 200 mg q.d. (N = 86), week 20): 8.00% | [total cholesterol] Mean percentage CFB - 24 weeks results (continued 200 mg q.d. (N = 86), week 24): 9.94% | [total cholesterol] Mean percentage CFB - 24 weeks results (from 25 mg b.i.d. to 50 mg b.i.d at 12 weeks (N = 17), week 1): 0.55% | [total cholesterol] Mean percentage CFB - 24 weeks results (from 25 mg b.i.d. to 50 mg b.i.d at 12 weeks (N = 17), week 2): 2.37% | [total cholesterol] Mean percentage CFB - 24 weeks results (from 25 mg b.i.d. to 50 mg b.i.d at 12 weeks (N = 17), week 4): −2.60% | [total cholesterol] Mean percentage CFB - 24 weeks results (from 25 mg b.i.d. to 50 mg b.i.d at 12 weeks (N = 17), week 8): −2.81% | [total cholesterol] Mean percentage CFB - 24 weeks results (from 25 mg b.i.d. to 50 mg b.i.d at 12 weeks (N = 17), week 12): 0.30% | [total cholesterol] Mean percentage CFB - 24 weeks results (from 25 mg b.i.d. to 50 mg b.i.d at 12 weeks (N = 17), week 16): 4.23% | [total cholesterol] Mean percentage CFB - 24 weeks results (from 25 mg b.i.d. to 50 mg b.i.d at 12 weeks (N = 17), week 24): 2.66% | [total cholesterol] Mean percentage CFB - 24 weeks results (from 50 mg q.d. to 100 mg q.d. at 12 weeks (N = 19), week 1): 1.24% | [total cholesterol] Mean percentage CFB - 24 weeks results (from 50 mg q.d. to 100 mg q.d. at 12 weeks (N = 19), week 2): 4.36% | [total cholesterol] Mean percentage CFB - 24 weeks results (from 50 mg q.d. to 100 mg q.d. at 12 weeks (N = 19), week 4): 1.67% | [total cholesterol] Mean percentage CFB - 24 weeks results (from 50 mg q.d. to 100 mg q.d. at 12 weeks (N = 19), week 8): 2.29% | [total cholesterol] Mean percentage CFB - 24 weeks results (from 50 mg q.d. to 100 mg q.d. at 12 weeks (N = 19), week 12): 2.39% | [total cholesterol] Mean percentage CFB - 24 weeks results (from 50 mg q.d. to 100 mg q.d. at 12 weeks (N = 19), week 16): 7.55% | [total cholesterol] Mean percentage CFB - 24 weeks results (from 50 mg q.d. to 100 mg q.d. at 12 weeks (N = 19), week 20): 6.69% | [total cholesterol] Mean percentage CFB - 24 weeks results (from 50 mg q.d. to 100 mg q.d. at 12 weeks (N = 19), week 24): 5.15% | [total cholesterol] Mean percentage CFB - 24 weeks results (placebo switched to 50 mg b.i.d at week 12 (N = 15), week 16): 3.97% | [total cholesterol] Mean percentage CFB - 24 weeks results (placebo switched to 50 mg b.i.d at week 12 (N = 15), week 20): 5.80% | [total cholesterol] Mean percentage CFB - 24 weeks results (placebo switched to 50 mg b.i.d at week 12 (N = 15), week 24): 3.22%
